One molecule from patent US4719046A, “Crysene derivatives” (Burroughs Wellcome Co., priority 1984, dated 1988) can be followed below.

One data set has as its system melanotic melanoma B16. Kind of data set: Melanotic Melanoma B16 test. The format is in vivo, mouse (B6C3-F1). The settings on record: median survival T/C; IP days 1, 5, 9; active if >125%; dose mg/kg: 1C 100, 6G 50, 3 70, 2 75, 18B 70. The source says: Methods for evaluating the antitumor activity of these compounds are essentially those used in the Tumor Panel by the Developmental Therapeutics Program, Division of Cancer Treatment, National Cancer Institute, A. Goldin, et al., Methods in Cancer Research, Vol. XVI, p. 165, Academic Press (1979). Some modifications, in dose level and schedule have been made to increase the testing efficiency.
(§1) CD2-F1 mice, of the same sex, weighing 20±3 g, are used for this test. Control and test animals are injected intraperitoneally with a suspension of ~10^6 viable P388/0 tumor cells on day 0. In each test, several dose levels which bracket the LD20 of the compound are evaluated; each dose level group contains six animals. The test compounds are prepared either in physiologic saline containing 0.05% Tween 80 or distilled water containing 5% dextrose and are administered intraperitoneally on days 1, 5, and 9 relative to tumor implant. Doses are on a mg/kg basis according to individual animals' body weights. The day of death for each animal is recorded, the median identified for each group and the ratios of median survival time for treated (T)/control (C) groups are calculated. The criterion for activity is T/C×100≥120%.
B6C3-F1 mice of the same sex, weighing 20±3 g, are used for this test. A suspension of B16 cells is prepared from a non-necrotic portion of solid tumor tissue obtained from a passage mouse. One gram of tumor is homogenized in 9 mL ice-cold Earle's salts solution and filtered through 1000 mesh screen to remove debris. 0.5 mL of the resulting brei is injected intraperitoneally into each animal. Dosing is carried out as in the P388/0 and L1210 tests. Days of death are recorded for a 60 day period and T/C ratio calculated as in the P388/0 and L1210 tests. The criterion for activity is T/C×100>125%.

For the next data set, the system named is Mycoplasma smegmatis. Kind of data set: Antibacterial test, Mycoplasma smegmatis (agar dilution). Format: cell-based. The source says:
(§2) Anitbacterial testing against […] (S3264) and Streptococcus pyogenes (CN10) was done with slight modifications using standard agar dilution assays as outlined in Manual of Clinical Microbiology Second Ed., E. H. Lennette. E. H. Spaulding and J. P. Traunt Eds., American Society for Microbiology, Washington, DC, 1974

Data set [1] relates to Candida albicans (CN 1863). Kind of data set: Candida albicans antifungal test. Format: cell-based. The settings on record: Wellcotest sensitivity test agar plus 7% lysed horse blood, CN1863. The source says:
Antifungal testing against Candida albicans (CN 1863) was done with slight modifications using a combination of broth and agar dilution assays as outlined in Laboratory Handbook of Medical Mycology, Chapter 6, pages 441-446, M. R. McGinnis, Academic Press, New York, NY, 1980
Medium: Wellcotest ® sensitivity test agar plus 7% lysed horse blood.

The subject of another data set is CD2-F1 mice. Kind of data set: LD20 in the P388/0 test mice. Format: in vivo, mouse (CD2-F1). Particulars: IP days 1, 5, 9, doses on a mg/kg basis. The procedure: as §1
^A Values in parentheses are the highest nontoxic dose where the
LD20 was not determined.

The test system of data set [2] is Streptococcus pyogenes (CN10). Kind of data set: Antibacterial test, Streptococcus pyogenes (agar dilution). Format: cell-based. The settings on record: agar dilution, CN10, read-out: MIC.
Source text: as §2
A general note: Agar dilution tests growth on a series of plates holding different concentrations.

Counter-ions that a name gives are not always drawn.

One may read the MIC as the least concentration at which growth counts as inhibited. Regarding `C[C@H](O)[C@@](C)(CO)NCc1cc2c3ccccc3ccc2c2ccccc12` (relative stereo) [Example 6G, (+-)(2R*,3S*)-2-(6-Chrysenylmethylamino)-2-methyl-1,3-butanediol hydrochloride.1/3H2 O], in the data set with melanotic melanoma B16, the “T/C × 100% Excluding 60 day Survivors” value is reported as “+160%”. Moreover, the values for the MIC (in the data set on Mycoplasma smegmatis; in data set [1]; in data set [2]) were at most 3 µg/mL, 100 µg/mL and 10 µg/mL, respectively. In the data set with CD2-F1 mice, the LD20 is recorded as 53 mg/kg.
